In the first assay the target is T1, human renin (Homo sapiens, UniProt P00797).
T1 construct: A human plasma pool is used as the source of both the substrate (angiotensinogen) and the enzyme (renin); from tissue; host or cells: human plasma pool
T1 sequence (P00797 67-406): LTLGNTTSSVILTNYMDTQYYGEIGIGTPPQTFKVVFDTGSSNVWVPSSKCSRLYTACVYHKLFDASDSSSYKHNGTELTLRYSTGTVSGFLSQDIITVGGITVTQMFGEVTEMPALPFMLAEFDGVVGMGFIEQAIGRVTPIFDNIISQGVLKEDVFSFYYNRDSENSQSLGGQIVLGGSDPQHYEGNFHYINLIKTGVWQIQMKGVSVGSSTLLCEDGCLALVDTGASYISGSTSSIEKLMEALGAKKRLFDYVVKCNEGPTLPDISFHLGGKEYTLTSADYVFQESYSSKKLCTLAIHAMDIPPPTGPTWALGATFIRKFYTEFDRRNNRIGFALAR
The experiment in a line: Plasma renin assay (angiotensin I generated in human plasma pool, RIA). In kind it is biochemical. The conditions noted are these: human plasma pool as source of renin and angiotensinogen; pH 6.0; 2 h at 37°; 1% dimethylsulfoxide. The method, then:
The assay is performed as follows: The test compound (i.e. the inhibitor) is dissolved in dimethylsulfoxide(1mM stock solution) and diluted with an aqueous buffer solution of 270 mM 2-(N-morpholino)ethanesulfonic acid and 1% human serum albumin (pH 5.85, also containing dimercaprol and 8-hydroxyquinoline sulfate in accordance with the instructions of the RIA kit noted below) to give an assay mixture in which the final dimethylsulfoxide content is 1% (v/v).
A human plasma pool is used as the source of both the substrate (angiotensinogen) and the enzyme (renin). The reaction is initiated by the addition of 50 μL of human plasma pool to 50 μL of various concentrations of inhibitor in the 1% dimethylsulfoxide assay buffer. The plasma renin activity is measured by the amount of angiotensin I generated at pH 6.0 following a 2 h incubation at 37°.
Quantitation of angiotensin I is performed by radioinununoassay (RIA kit from New England Nuclear-Dupont, Mississauga, ON, Canada). The enzymatic activity of renin is expressed in ng of angiotensin I generated/mL/2 h. The extent of inhibition of the reaction is determined from the amount of angiotensin I generated in reference to a control prepared without inhibitor. Nonlinear regression analysis is used to calculate the IC50 values, i.e. the molar concentration of the test compound required to cause a 50% inhibition of the enzyme activity.
The following table exemplifies results obtained for compounds of formula 1.
On to `CC(C)C[C@H](O)[C@H](O)[C@H](CC1CCCCC1)NC(=O)[C@H](CC1CC1)C[C@H](O)[C@H](O)Cc1ccccc1` [Title compound of example 4, (2R, 4S , 5R)-N-[1(S)-(Cyclohexylmethyl)-2(R), 3(S)-dihydroxy-5methylhexyl]-2-(cyclopropylmethyl)-4,5-dihydroxy-6-phenylhexanamide], for which the IC50 (usually the concentration that gives 50% inhibition) turned out to be 0.11 µM. On to `CC(C)C[C@H](O)[C@H](O)[C@H](CC1CCCCC1)NC(=O)[C@H](CC1CC1)C[C@H](O)[C@@H](O)Cc1ccccc1` [Title compound of example 2, (2R, 4S, 5S)-N-[1(S)-(Cyclohexylmethyl)-2(R), 3(S)-dihydroxy-5-methylhexyl]-2-(cyclopropylmethyl)-4,5-dihydroxy-6-phenylhexanamide], for which the IC50 turned out to be 0.022 µM. Still for that read-out and setting: the figure for `CC(C)C[C@H](O)[C@H](O)[C@H](CC1CCCCC1)NC(=O)[C@H](CC1CC1)[C@H](O)C[C@@H](O)Cc1ccccc1` [Title compound of example 12, (2R, 3R, 5S)-N-[1(S)-(Cyclohexylmethyl)-2(R), 3(S)-dihydroxy-5-methylhexyl]-2-(cyclopropylmethyl)-3,5-dihydroxy-6-phenylhexanamide] is 1 µM; for `CC(C)C[C@H](O)[C@H](O)[C@H](CC1CCCCC1)NC(=O)[C@H](CC1CC1)C[C@@H](O)[C@@H](O)Cc1ccccc1` [Title compound of example 5, (2R, 4R, 5S)-N-[1(S)-(Cyclohexylmethyl)-2(R), 3(S)-dihydroxy-5-methylhexyl]-2-(cyclopropylmethyl)-4,5-dihydroxy-6-phenylhexanamide] it is 0.048 µM; for `CC(C)C[C@H](O)[C@H](O)[C@H](CC1CCCCC1)NC(=O)[C@H](CC1CC1)[C@H](O)C[C@H](O)Cc1ccccc1` [Title compound of example 11, (2R,3R,5R)-N-[1(S)-(Cyclohexylmethyl)-2(R),3(S)-dihydroxy-5-methylhexyl]-2-(cyclopropylmethyl)-3,5-dihydroxy-6-phenylhexanamide] it is 0.26 µM. Still for that read-out and setting: then `CC(C)C[C@H](O)[C@H](O)[C@H](CC1CCCCC1)NC(=O)[C@H](CC1CC1)[C@@H](O)C[C@@H](O)Cc1ccccc1` [Title compound of example 13], with 0.175 µM; and `CC(C)C[C@H](O)[C@H](O)[C@H](CC1CCCCC1)NC(=O)[C@H](CC1CC1)[C@@H](O)C[C@H](O)Cc1ccccc1` [Title compound of example 10, (2R,3S,5R)-N-[1(S)-(Cyclohexylmethyl)-2(R), 3(S)-dihydroxy-5-methylhexyl]-2-(cyclopropylmethyl)-3,5-dihydroxy-6-phenylhexanamide], with 0.021 µM; and `CC(C)C[C@H](O)[C@H](O)[C@H](CC1CCCCC1)NC(=O)[C@H](CC1CC1)C[C@@H](O)[C@H](O)Cc1ccccc1` [Corresponding (2R,4R,5R)-isomer of title compound of example 2], with 0.038 µM.

The assay is the same for the next values; noted with them: values in parentheses in the list of other examples; assay not restated there.
Regarding `CC(C)C[C@H](O)[C@H](O)[C@H](CC1CCCCC1)NC(=O)[C@H](Cc1cccs1)C[C@H](O)[C@@H](O)Cc1ccccc1`, the IC50 amounted to 0.485 µM. Still for that read-out and setting: then `CC(C)C[C@H](O)[C@H](O)[C@H](CC1CCCCC1)NC(=O)[C@H](Cc1cnc[nH]1)C[C@@H](O)[C@H](O)Cc1ccccc1`, with 0.173 µM; and `Cc1nc(C[C@H](C[C@H](O)[C@@H](O)Cc2ccccc2)C(=O)N[C@@H](CC2CCCCC2)[C@@H](O)[C@@H](O)CC(C)C)cs1`, with 0.22 µM.

The values are drawn from patent US5354767A, “Renin inhibiting polyhydroxy-monoamides” (Bio-Mega, Inc., priority 1991, dated 1994).
